The text below walks through data of patent US20260207605A1, “KRAS G12D INHIBITORS AND USES THEREOF” (Abbisko Therapeutics Co., Ltd., priority 2022, published 2026).

pIC50: −log10 of the molar value. Where two headings read alike, the source gives them in different places.

In one data set the target is KRAS^G12D/cRAF (Homo sapiens, UniProt P01116, G12D). Kind of data set: KRAS G12D/cRAF binding test (Alphalisa). Particulars: His-tagged KRAS G12D with GMPPNP, GST-tagged cRAF. The method, then:
The compound was dissolved in 100% DMSO at a starting concentration of 5 mM and diluted in DMSO with a 3-fold serial dilution method for a total of 8 concentration points. 1 μL of the compound or DMSO at each concentration point was added into 99 μL of the experimental buffer to obtain 10× stock solution.
(§1) The ratio for each compound concentration was calculated from the signal of the DMSO control group contained in each assay plate and the Alphalisa signal in each compound well. The compound concentration required for inhibitory concentration at 50% (IC50) was determined using a four-parameter logarithmic dose-response equation by testing the concentration of the compound and the value of the ratio. The endpoint value (IC50) of the reference compound was assessed in each experiment as a quality control measure. If the endpoint value is within three times the expected value, the experiment may be considered acceptable.
(In general: Bead proximity is the source of the signal in Alpha formats.)

Another data set concerns HPAC. Kind of data set: Anti-proliferative 2D CTG assay, HPAC. The class given is cell-based. Particulars: Homo sapiens, 96 h, HPAC cells, 4 days incubation, read-out: HPAC cell IC50. The method, then:
(§2) 1.1 Day 0 Cell Culture and Plating
(§3) Cells in a logarithmic growth phase were harvested and the cells were counted by using a […]. Cell viability was tested by using a trypan blue exclusion method to ensure that cell viability was above 90%. The cell concentration was adjusted to the desired final density, and 90 μL of cell suspension was added to a 96-well plate, then the cells were incubated overnight at 37° C., 5% CO2 and 95% humidity.
(§4) 10 μL PBS was added to each well of the TO plate containing cells. The CTG reagent was thawed and the plate was equilibrated to room temperature for 30 minutes. The CTG solution of 50 µL/well was added to each well. The cells were lysed by shaking on an orbital shaker for 5 minutes. The plate was left at room temperature for 20 minutes to stabilize the luminescence signal. The TO fluorescence signal value was read.
(§5) From the 10 mM stock solution, with a ratio of 1:5, 9-point serial dilutions were performed. The 10× medium containing the compound was transferred into corresponding wells of the 96 wells. The final maximum compound concentration was […] and the final DMSO concentration was 0.1%. The 96-well plate was placed in a 37° C. incubator and incubated for 4 days.
(§6) 50 μL/well of detection reagent (CTG) was added to the cells, and the signal was read in an Envision machine.
as §1, with “The percent inhibition (%) at” for “The ratio for”, “signal in” for “signal of”, “the HPE and ZPE” for “the DMSO”, “control wells and the fluorescence signal in the individual compound wells included” for “control group contained”, “assay plate. […]” for “assay plate and the Alphalisa signal in each compound well.”, “the inhibition percentage value.” for “the value of the ratio.”

A further data set deals with LS513. As to the kind of experiment: Anti-proliferative 2D CTG assay, LS513. The format is cell-based. Particulars: Homo sapiens, LS-513, 96 h, LS513 cells, 4 days incubation, read-out: LS513 cell IC50. The protocol:
as §2, §3, §4, §5, §6
as §1, with “The percent inhibition (%) at” for “The ratio for”, “signal in” for “signal of”, “the HPE and ZPE” for “the DMSO”, “control wells and the fluorescence signal in the individual compound wells included” for “control group contained”, “assay plate. […]” for “assay plate and the Alphalisa signal in each compound well.”, “the inhibition percentage value.” for “the value of the ratio.”

The nature of data set [1]: Pharmacokinetic experiment in mice (single PO or IV administration). The following applies: male, ICR, mouse, plasma.
From the text: The purpose of this trial is to study the pharmacokinetic behavior of some compounds of the present invention, and the administration method is: single oral administration (PO) or intravenous administration (IV) to ICR mice.
ICR mice male N=9 original source: Shanghai Sippr-Bk Lab Animal Co., Ltd.
The compounds were weighed and dissolved in the corresponding solution (0.5% CMC+1% tween water solution or 10% PG+10% Solutol®+80% pH3 citrate buffer). The mixture was then shaken well and sonicated to prepare a 1 mg/mL stock solution. Nine mice were orally administered at a dose of 10 mg/kg or intravenously administered at a dose of 2 mg/kg after an overnight fast.
About 90 μL of blood was collected via the submandibular vein per time point, heparin sodium anticoagulant was added, the sample was placed on ice after collection, and plasma was centrifuged within 1 hour (centrifugation conditions: 8,000 rpm, 6 minutes, 2-8° C.). The blood collection timepoints were 0, 0.25, 0.5, 1, 2, 4, 6, 8 and 24 h. The samples were stored in a −20° C. refrigerator.
The plasma sample was 40 μL, 160 μL of ice-cold acetonitrile containing internal standard was added, vortexed for 3 minutes, and centrifuged at 11,000 rpm for 5 minutes. 100 μL of the supernatant was taken and added to 100 μL of water, 5 μL of the sample was taken and injected into LC/MS/MS for analysis.
In another data set the test system is AsPC-1. Kind of data set: Anti-proliferative 2D CTG assay, AsPC-1. The class given is cell-based. Particulars: AsPC-1 cells, 4 days incubation, read-out: AsPC-1 cell IC50. The method, then: as §2, §3, §4, §5, §6
as §1, with “The percent inhibition (%) at” for “The ratio for”, “signal in” for “signal of”, “the HPE and ZPE” for “the DMSO”, “control wells and the fluorescence signal in the individual compound wells included” for “control group contained”, “assay plate. […]” for “assay plate and the Alphalisa signal in each compound well.”, “the inhibition percentage value.” for “the value of the ratio.”

A further data set deals with AGS. Kind of data set: Anti-proliferative 2D CTG assay, AGS. The format is cell-based. Particulars: AGS cells, 4 days incubation, read-out: AGS cell IC50. The method, then:
as §2, §3, §4, §5, §6
as §1, with “The percent inhibition (%) at” for “The ratio for”, “signal in” for “signal of”, “the HPE and ZPE” for “the DMSO”, “control wells and the fluorescence signal in the individual compound wells included” for “control group contained”, “assay plate. […]” for “assay plate and the Alphalisa signal in each compound well.”, “the inhibition percentage value.” for “the value of the ratio.”

What is called pIC50 is the IC50 on a negative log10 scale, so that one unit is a factor of ten. One may read the AUC as concentration integrated over time. Read a low AUC as less exposure. A word on the Cmax: it is the highest concentration seen after dosing. As usually defined, the half-life is how long it takes for the measured level to halve. A lower half-life goes with fast loss. A word on the bioavailability: it is the share of a dose that reaches the circulation, judged against a reference dose that is usually intravenous.

Chain of KRAS^G12D/cRAF (P01116 1-188 isoform P01116-2 G12D): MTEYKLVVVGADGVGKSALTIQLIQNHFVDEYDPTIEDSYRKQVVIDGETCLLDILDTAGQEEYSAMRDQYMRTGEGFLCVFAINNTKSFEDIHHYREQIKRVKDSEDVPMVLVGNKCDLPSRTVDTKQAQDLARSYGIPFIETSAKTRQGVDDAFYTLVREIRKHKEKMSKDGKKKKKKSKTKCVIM

`[2H]C([2H])([2H])C([2H])([2H])[C@@]12CC[C@@H](CN(c3nc(OC[C@@]45CCCN4C/C(=C\F)C5)nc4c(F)c(-c5ccc(F)c6sc(N)c(C#N)c56)c(Cl)cc34)C1)N2` (single isomer, unassigned) [Example 361]: the pIC50 at KRAS^G12D/cRAF was 8.15. In the data set on HPAC, the pIC50 was 7.42. In addition, in the data set on LS513, the pIC50 is 7.40. Also, in data set [1] (iv, 2 mg/kg), the AUC worked out at 221 ng·h/mL, the concentration peaked (Cmax) at 179 ng/mL and the half-life is 13.7 h. In data set [1] (po, 10 mg/kg), the AUC came to 370 ng·h/mL, the concentration peaked (Cmax) at 164 ng/mL, the bioavailability was 33.5% and the half-life is 9.6 h.

`[2H]C([2H])([2H])C([2H])([2H])[C@@]12CC[C@@H](CN(c3nc(OC[C@@]45CCCN4CC(=C(F)F)C5)nc4c(F)c(-c5cc(O)cc6ccc(F)c(C#C)c56)ncc34)C1)N2` [Example 47, 4-(2-(((S)-2-(difluoromethylene)tetrahydro-1H-pyrrolizin-7a (5H)-yl)methoxy)-4-((1R,5S)-1-(ethyl-d5)-3,8-diazabicyclo [3.2.1]octan-3-yl)-8-fluoropyrido [4,3-d]pyrimidin-7-yl)-5-ethynyl-6-fluoronaphthalen-2-ol]: the pIC50 at KRAS^G12D/cRAF was 7.84; in the data set with HPAC, 7.64; in the data set with LS513 it was 7.62; in the data set with AsPC-1 (Homo sapiens, ASPC1, 96 h) it was 7.33; in the data set on AGS (Homo sapiens, AGS, 96 h) it was 8.32.

On to `C#Cc1c(F)ccc2cc(O)cc(-c3ncc4c(N5C[C@@H]6CC[C@](CC)(C5)N6)nc(OC[C@@]56CCCN5C/C(=C\F)C6)nc4c3F)c12` [Example 56, 4-(4-((1R,5S)-1-ethyl-3,8-diazabicyclo[3.2.1]octan-3-yl)-8-fluoro-2-(((S,Z)-2-(fluoromethylene)tetrahydro-1H-pyrrolizin-7a (5H)-yl)methoxy)pyrido[4,3-d]pyrimidin-7-yl)-5-ethynyl-6-fluoronaphthalen-2-ol], for which the pIC50 in the data set with HPAC was 8.60; in the data set on LS513, 8.59; in the data set with AsPC-1, 8.04; in the data set on AGS, 9.22.

As for `[2H]C([2H])([2H])OC[C@@]12CC[C@@H](CN(c3nc(OC[C@@]45CCCN4C/C(=C\F)C5)nc4c(F)c(-c5cc(O)cc6ccc(F)c(C#C)c56)ncc34)C1)N2` [Example 62, 5-ethynyl-6-fluoro-4-(8-fluoro-2-(((S,Z)-2-(fluoromethylene)tetrahydro-1H-pyrrolizin-7a(5H)-yl)methoxy)-4-((1R,5S)-1-((methoxy-d3)methyl)-3,8-diazabicyclo[3.2.1]octan-3-yl)pyrido[4,3-d]pyrimidin-7-yl) naphthalen-2-ol], the pIC50 at KRAS^G12D/cRAF was 8.29; in the data set with HPAC it was 8.01; in the data set on LS513, 8.31; in the data set on AsPC-1, 7.70; with AGS, 8.82. Further, the AUC in data set [1] (iv, 2 mg/kg) turned out to be 849 ng·h/mL; in data set [1] (po, 10 mg/kg), 619 ng·h/mL. The Cmax worked out at 764 ng/mL in data set [1] (iv, 2 mg/kg) and 224 ng/mL in data set [1] (po, 10 mg/kg). Also, the half-life in data set [1] (iv, 2 mg/kg) was 4.9 h; in data set [1] (po, 10 mg/kg), 5.7 h. The same compound yielded a bioavailability in data set [1] (po, 10 mg/kg) of 14.6%.

With `C#Cc1c(F)ccc2cc(O)cc(-c3ncc4c(N5C[C@@H]6CC[C@](C7CCCC7)(C5)N6)nc(OC[C@@]56CCCN5C/C(=C\F)C6)nc4c3F)c12` [Example 75, 4-(4-((1S,5S)-1-cyclopentyl-3,8-diazabicyclo[3.2.1]octan-3-yl)-8-fluoro-2-(((S,Z)-2-(fluoromethylene)tetrahydro-1H-pyrrolizin-7a (5H)-yl)methoxy)pyrido[4,3-d]pyrimidin-7-yl)-5-ethynyl-6-fluoronaphthalen-2-ol], the pIC50 at KRAS^G12D/cRAF was 7.46; with HPAC it was 7.03; with LS513, 7.25; with AGS (Homo sapiens, AGS, 96 h), 7.85.

Take `[2H]C([2H])([2H])[C@@]12CC[C@@H](CN(c3nc(OC[C@@]45CCCN4C/C(=C\F)C5)nc4c(F)c(-c5cc(O)cc6ccc(F)c(C#C)c56)c(F)cc34)C1)N2` [Example 229, 4-(6,8-difluoro-2-(((S,Z)-2-(fluoro-methylene)tetrahydro-1H-pyrrolizin-7a(5H)-yl)methoxy)-4-((1R,5S)-1-(methyl-d3)-3,8-diazabicyclo[3.2.1]octan-3-yl)quinazolin-7-yl)-5-ethynyl-6-fluoro-naphthalen-2-ol]: the values for the pIC50 at KRAS^G12D/cRAF, with HPAC and with LS513 were 7.69, 7.06 and 7.48, respectively.

For the compound `[2H]C([2H])([2H])C([2H])([2H])[C@@]12CC[C@@H](CN(c3nc(OC[C@@]45CCCN4CC(=C)C5)nc4c(F)c(-c5cc(N)cc6ccc(F)c(C#C)c56)ncc34)C1)N2` [Example 357, 4-(4-((1R,5S)-1-(ethyl-d5)-3,8-diazabicyclo[3.2.1]octan-3-yl)-8-fluoro-2-(((S)-2-methylenetetrahydro-1H-pyrrolizin-7a(5H)-yl)methoxy)pyrido[4,3-d]pyrimidin-7-yl)-5-ethynyl-6-fluoronaphthalen-2-amine], the pIC50 in the data set on HPAC is 7.33; in the data set with LS513 it was 7.24; in the data set with AGS (Homo sapiens, AGS, 96 h), 7.64.

For `[2H]C([2H])([2H])C([2H])([2H])[C@@]12CC[C@@H](CN(c3nc(OC[C@@]45CCCN4C/C(=C\F)C5)nc4c(F)c(-c5cccc6sc(N)c(C#N)c56)c(Cl)cc34)C1)N2` [Example 362, 2-amino-4-(6-chloro-4-((1R,5S)-1-(ethyl-d5)-3,8-diazabicyclo [3.2.1]octan-3-yl)-8-fluoro-2-(((S,Z)-2-(fluoromethylene)tetra-hydro-1H-pyrrolizin-7a(5H)-yl)methoxy)quinazolin-7-yl)benzo [b]thiophene-3-carbonitrile], the results for the negative logarithm of the IC50 (pIC50) on KRAS^G12D/cRAF, with HPAC and in the data set on LS513 were 7.56, 7.21 and 7.18, respectively.

Consider `[2H]C([2H])([2H])OC[C@@]12CC[C@@H](CN(c3nc(OC[C@@]45CCCN4C/C(=C\F)C5)nc4c(F)c(-c5cccc6sc(N)c(C#N)c56)c(Cl)cc34)C1)N2` [Example 363, 2-amino-4-(6-chloro-8-fluoro-2-(((S,Z)-2-(fluoromethylene)tetra-hydro-1H-pyrrolizin-7a(5H)-yl)methoxy)-4-((1R,5S)-1-((methoxy-d3)methyl)-3,8-diaza-bicyclo[3.2.1]octan-3-yl)quina-zolin-7-yl)benzo[b]thiophene-3-carbonitrile], for which the negative logarithm of the IC50 (pIC50) on KRAS^G12D/cRAF was 7.73; with HPAC it was 7.18; with LS513 it was 7.08.

For the compound `C#Cc1c(F)ccc2cc(O)cc(-c3ncc4c(N5CC6CCC(C5)N6)nc(OC[C@@]56CCCN5C[C@H](F)C6)nc4c3F)c12` [Positive Compound 1, reference compound], the pIC50 with HPAC was 7.99; with LS513 it was 7.74; in the data set with AsPC-1 (Homo sapiens, ASPC1, 96 h), 7.46; in the data set with AGS (Homo sapiens, AGS, 96 h), 8.38. The AUC in data set [1] (iv, 2 mg/kg) was found to be 367 ng·h/mL; in data set [1] (po, 10 mg/kg) it was 40.2 ng·h/mL. In addition, the Cmax in data set [1] (iv, 2 mg/kg) came to 1130 ng/mL; in data set [1] (po, 10 mg/kg) it was 20.6 ng/mL. In data set [1] (po, 10 mg/kg), this compound had a bioavailability of 2.2%.

`C#Cc1c(F)ccc2cc(O)cc(-c3ncc4c(N5C[C@@H]6CC[C@](CC)(C5)N6)nc(OC[C@@]56CCCN5C[C@H](F)C6)nc4c3F)c12` [Positive Compound 2, reference compound]: the pIC50 with HPAC was 7.48; in the data set on LS513 it was 7.23; with AsPC-1 (Homo sapiens, ASPC1, 96 h), 7.08; with AGS (Homo sapiens, AGS, 96 h) it was 8.04.
